From patent publication US20130072506A1, “6,8-DISUBSTITUTED PURINE COMPOSITIONS” (priority 2011, published 2013)
Where two headings read alike, the source gives them in different places.

What was measured:
[1] = system: T-lymphoblastic leukemia cell line CEM; assay: In vitro cytotoxic activity (metabolisation of Calcein AM); assay type: cell-based, human; settings: CEM cells, 72 hours incubation, called GI50, read-out: Cell line tested/IC50 (μmol/L) CEM
From the text: (§1) In vitro Cytotoxic Activity (Metabolisation of Calcein AM). Because toxic compounds negatively influence metabolic processes of cells, many standard cytotoxicity assays are based on measurement of metabolisation rate of various artificial substrates. Resulting product is then quantified, for example, by means of spectrometry. The assays can be easily modified for use in 96-well plates. For evaluation of cytotoxicity of the 6,8-disubstituted purines of this invention, a microtiter assay based on quantification of metabolisation of Calcein AM was used. The assay is widely used in drug screening programs and in chemosensitivity testing. In live cells, Calcein AM is enzymatically hydrolysed and accumulation of resulting calcein is manifested by green fluorescence.
(§2) The following human cell lines were used for routine screening of the compounds: normal diploid fibroblasts BJ, T-lymphoblastic leukemia cell line CEM, promyelocytic leukemia cell line HL-60, erytroid leukemia cell line K-562, breast carcinoma cell line MCF-7, osteosarcoma cell line HOS and melanoma cell line G-361. The cells were maintained in Nunc/Corning 80 cm^2 plastic tissue culture flasks and cultured in cell culture medium (DMEM with 5 g/l glucose, 2 mM glutamine, […] penicillin, 100 mmg/ml streptomycin, 10% fetal calf serum and sodium bicarbonate).
(§3) The cell suspensions were prepared and diluted according to the particular cell type and the expected target cell density (2.500-30.000 cells per well based on cell growth characteristics) and pipetted (80 μl) into 96-well plates. Inoculates were allowed a pre-incubation period of 24 hours at 37° C. and 5% CO2 for stabilization. Tested compound was added in total volume of […] of water at time zero. Usually, test compound was evaluated at six 3-fold dilutions. In routine testing, the highest concentration tested was 100 μM, but it could have been adjusted because of limited solubility of a compound. All drug concentrations were tested in triplicates.
(§4) Incubations of cells with the test compounds lasted for 72 hours at 37° C., in 5% CO2 atmosphere and 100% humidity. At the end of incubation period Calcein AM in PBS was added into final concentration of 1 μg/ml. After another 1 hour of incubation fluorescence (FD) was measured with the Labsystem FIA Reader Fluoroscan Ascent (UK). Growth inhibition (GI) was estimated using the following equitation: GI=(mean FDdrug exposed wells−mean FDblank)/(mean FDcontrol wells−mean FDblank)×100%. The GI50 value, the drug concentration causing 50% reduction of Calcein AM conversion, was calculated from the obtained dose response curves.

[2] = system: erytroid leukemia cell line K-562; assay: as above; assay type: cell-based, human; settings: 72 hours incubation, called GI50, read-out: Cell line tested/IC50 (μmol/L) K-562
From the text: as §1, §2, §3, §4

[3] = system: osteosarcoma cell line HOS; assay: as above; assay type: cell-based, human; settings: HOS cells, 72 hours incubation, called GI50, read-out: Cell line tested/IC50 (μmol/L) HOS
From the text: as §1, §2, §3, §4

melanoma cell line G-361 = assay: as above; assay type: cell-based, human; settings: G-361 cells, 72 hours incubation, called GI50, read-out: Cell line tested/IC50 (μmol/L) G-361
From the text: as §1, §2, §3, §4

[4] = system: breast carcinoma cell line MCF-7; assay: as above; assay type: cell-based, human; settings: MCF7 cells, 72 hours incubation, called GI50, read-out: Cell line tested/IC50 (μmol/L) MCF7
From the text: as §1, §2, §3, §4

[5] = system: normal diploid fibroblasts BJ; assay: as above; assay type: cell-based, human; settings: BJ cells, 72 hours incubation, called GI50, read-out: Cell line tested/IC50 (μmol/L) BJ
From the text: as §1, §2, §3, §4

[6] = system: Human diploid fibroblast BJ; assay: In vitro cytotoxic activity (metabolisation of MTT); assay type: cell-based; settings: 72 hours, BJ passage 18-22
Method: In vitro Cytotoxic Activity (metabolisation of Mtt). MTT ([…]) assay is a standard colorimetric assay for evaluation of cytotoxicity. Mitochondrial dehydrogenase activity converts yellow MTT into violet formazan which is measured by means of spectrometry.
Human diploid fibroblast BJ (passage 18-22) were seeded into 96-well plate (5.000 cells per well). After 6 hours cultivation medium (DMEM with 5 g/l glucose, 2 mM glutamine, 100 U/ml penicillin, 100 mmg/ml streptomycin, 10% fetal calf serum and sodium bicarbonate) was replaced with the cultivation medium containing test compounds in concentration range of 0-200 μM. Highest concentration was adjusted if the solubility of the compound was limiting. Every concentration was tested in pentaplicate. MTT was added to the cells after 72 hours incubation (final concentration 0.5 mg/ml) and incubation continued for another 3 hours. MTT was solubilised by DMSO and absorbance at 570 nm was measured. Growth inhibition (GI) was estimated using the following equitation: GI=(mean A drug exposed wells−mean Ablank/mean Acontrol wells−mean Ablank)×100%. The GI20 value, the drug concentration causing 20% decrease in mitochondrial dehydrogenase activity, was calculated from the obtained dose response curves.

[7] = Homo sapiens, K562, K-562 cells

Row | melting point | Compound | IC50 [1] | IC50 ([2]; K-562 cells) | IC50 [3] | IC50 (melanoma cell line G-361) | IC50 [4] | IC50 [5] | GI20 [6] | IC50 ([1]; Homo sapiens, CCRF-CEM) | IC50 [2, 7] | IC50 ([3]; Homo sapiens) | IC50 (melanoma cell line G-361; Homo sapiens) | IC50 ([4]; Homo sapiens) | IC50 ([5]; Homo sapiens)
1 | – | Nc1nc2ncnc(NCc3ccc(F)cc3)c2[nH]1 [Compound 90] | > 50 µmol/L | > 50 µmol/L | > 50 µmol/L | > 50 µmol/L | > 50 µmol/L | > 50 µmol/L | >100 µM | – | – | – | – | – | –
2 | – | COc1cccc(CNc2ncnc3nc(N)[nH]c23)c1O [Compound 104] | > 50 µmol/L | > 50 µmol/L | > 50 µmol/L | > 50 µmol/L | > 50 µmol/L | > 50 µmol/L | >100 µM | – | – | – | – | – | –
3 | 205 to 210 °C | COc1nc2ncnc(NCC=C(C)C)c2[nH]1 [Compound 123, 8-Methoxy-6-(3-methylbut-2-en-1-ylamino)purine] | – | – | – | – | – | – | – | – | – | – | – | – | –
4 | 96 to 99 °C | CSc1nc2ncnc(NCC=C(C)C)c2[nH]1 [Compound 149, 6-(3-Methylbut-2-en-1-ylamino)-8-methylsulphanylpurine] | – | – | – | – | – | – | – | – | – | – | – | – | –
5 | 210 to 213 °C | N#Cc1nc2ncnc(NCc3ccccc3)c2[nH]1 [Compound 174, 6-Benzylamino-8-cyanopurine] | – | – | – | – | – | – | – | – | – | – | – | – | –
6 | – | Nc1nc2ncnc(NCc3ccc(Cl)cc3)c2[nH]1 [Compound 92] | > 50 µmol/L | > 50 µmol/L | > 50 µmol/L | > 50 µmol/L | > 50 µmol/L | > 50 µmol/L | >100 µM | – | – | – | – | – | –
7 | – | Nc1nc2ncnc(NCc3cccc(F)c3)c2[nH]1 [Compound 89] | > 50 µmol/L | > 50 µmol/L | > 50 µmol/L | > 50 µmol/L | > 50 µmol/L | > 50 µmol/L | >100 µM | – | – | – | – | – | –
8 | – | Oc1cc(O)cc(CNc2ncnc3nc(Cl)[nH]c23)c1 [Compound 47] | > 100 µmol/L | > 100 µmol/L | > 100 µmol/L | > 100 µmol/L | > 100 µmol/L | > 100 µmol/L | >200 µM | – | – | – | – | – | –
9 | – | CC(C)=CCNc1ncnc2nc(NCCCN)[nH]c12 [Compound 211] | > 50 µmol/L | > 50 µmol/L | > 50 µmol/L | > 50 µmol/L | > 50 µmol/L | > 50 µmol/L | >100 µM | – | – | – | – | – | –
10 | – | COc1ccc(CNc2ncnc3nc(N)[nH]c23)cc1 [Compound 99] | > 50 µmol/L | > 50 µmol/L | > 50 µmol/L | > 50 µmol/L | > 50 µmol/L | > 50 µmol/L | >100 µM | – | – | – | – | – | –
11 | – | Nc1nc2ncnc(NCc3ccc(O)c(O)c3)c2[nH]1 [Compound 103] | > 50 µmol/L | > 50 µmol/L | > 50 µmol/L | > 50 µmol/L | > 50 µmol/L | > 50 µmol/L | >100 µM | – | – | – | – | – | –
12 | – | Nc1nc2ncnc(NCc3ccc(Cl)c(Cl)c3)c2[nH]1 [Compound 101] | > 50 µmol/L | > 50 µmol/L | > 50 µmol/L | > 50 µmol/L | > 50 µmol/L | > 50 µmol/L | >100 µM | – | – | – | – | – | –
13 | – | Nc1nc2ncnc(NCc3cccc(Cl)c3)c2[nH]1 [Compound 91] | > 50 µmol/L | > 50 µmol/L | > 50 µmol/L | > 50 µmol/L | > 50 µmol/L | > 50 µmol/L | >100 µM | – | – | – | – | – | –
14 | – | CC(=CCNc1ncnc2nc(NCCCN)[nH]c12)CO [Compound 210] | > 50 µmol/L | > 50 µmol/L | > 50 µmol/L | > 50 µmol/L | > 50 µmol/L | > 50 µmol/L | >100 µM | – | – | – | – | – | –
15 | 230 to 232 °C | O=C(O)c1nc2ncnc(NCc3ccccc3)c2[nH]1 [Compound 202, 6-Benzylaminopurine-8-carboxylic acid] | – | – | – | – | – | – | – | – | – | – | – | – | –
16 | – | C/C(=C\CNc1ncnc2nc(N)[nH]c12)CO [Compound 85, 6-(E)-(4-hydroxy-3-methylbut-2-en-1-ylamino)-8-aminopurine] | – | – | – | – | – | – | >100 µM | > 50 µmol/L | > 50 µmol/L | > 50 µmol/L | > 50 µmol/L | > 50 µmol/L | > 50 µmol/L
17 | – | COc1ccccc1CNc1ncnc2nc(N)[nH]c12 [Compound 97] | > 50 µmol/L | > 50 µmol/L | > 50 µmol/L | > 50 µmol/L | > 50 µmol/L | > 50 µmol/L | >100 µM | – | – | – | – | – | –
18 | – | CC(=CCNc1ncnc2nc(N)[nH]c12)CO [Compound 84] | > 50 µmol/L | > 50 µmol/L | > 50 µmol/L | > 50 µmol/L | > 50 µmol/L | > 50 µmol/L | >100 µM | – | – | – | – | – | –
19 | – | Nc1nc2ncnc(Nc3ccccc3O)c2[nH]1 [Compound 114] | > 50 µmol/L | > 50 µmol/L | > 50 µmol/L | > 50 µmol/L | > 50 µmol/L | > 50 µmol/L | >100 µM | – | – | – | – | – | –
20 | – | CC(CO)CCNc1ncnc2nc(N(C)C)[nH]c12 (centres unmarked) [Compound 64] | > 50 µmol/L | > 50 µmol/L | > 50 µmol/L | > 50 µmol/L | > 50 µmol/L | > 50 µmol/L | >100 µM | – | – | – | – | – | –
21 | – | CC(=CCNc1ncnc2nc(N(C)C)[nH]c12)CO [Compound 63] | > 50 µmol/L | > 50 µmol/L | > 50 µmol/L | > 50 µmol/L | > 50 µmol/L | > 50 µmol/L | >100 µM | – | – | – | – | – | –
22 | – | CC(CO)CCNc1ncnc2nc(N)[nH]c12 (centres unmarked) [Compound 86, 6-(4-hydroxy-3-methylbutylamino)-8-aminopurine] | – | – | – | – | – | – | >100 µM | > 50 µmol/L | > 50 µmol/L | > 50 µmol/L | > 50 µmol/L | > 50 µmol/L | > 50 µmol/L
23 | – | Nc1nc2ncnc(NCc3ccccc3F)c2[nH]1 [Compound 88] | > 50 µmol/L | > 50 µmol/L | > 50 µmol/L | > 50 µmol/L | > 50 µmol/L | > 50 µmol/L | >100 µM | – | – | – | – | – | –
24 | – | COc1cccc(CNc2ncnc3nc(N)[nH]c23)c1 [Compound 98] | > 50 µmol/L | > 50 µmol/L | > 50 µmol/L | > 50 µmol/L | > 50 µmol/L | > 50 µmol/L | >100 µM | – | – | – | – | – | –
25 | – | Nc1nc2ncnc(Nc3cccc(O)c3)c2[nH]1 [Compound 115] | > 50 µmol/L | > 50 µmol/L | > 50 µmol/L | > 50 µmol/L | > 50 µmol/L | > 50 µmol/L | >100 µM | – | – | – | – | – | –
26 | – | Nc1nc2ncnc(NCc3cccc([N+](=O)[O-])c3)c2[nH]1 [Compound 100] | > 50 µmol/L | > 50 µmol/L | > 50 µmol/L | > 50 µmol/L | > 50 µmol/L | > 50 µmol/L | >100 µM | – | – | – | – | – | –
